Source: publication PMC9138151, “Bioactive Phytochemicals of Citrus reticulata Seeds—An Example of Waste Product Rich in Healthy Skin Promoting Agents” (Antioxidants, 2022)

Columns and labels:
[1] = tested on: incisional and excisional wounds; conditions: topical application; diabetic and non-diabetic rats; cited from earlier work
injured skin = conditions: cited from earlier work
Xanthine oxidase = Xanthine oxidase (Homo sapiens, UniProt P47989); test: In vitro assay of xanthine oxidase activity; type: biochemical; conditions: for IC50: ± SD, triplicate
Chain of Xanthine oxidase (P47989 whole entry, species assumed): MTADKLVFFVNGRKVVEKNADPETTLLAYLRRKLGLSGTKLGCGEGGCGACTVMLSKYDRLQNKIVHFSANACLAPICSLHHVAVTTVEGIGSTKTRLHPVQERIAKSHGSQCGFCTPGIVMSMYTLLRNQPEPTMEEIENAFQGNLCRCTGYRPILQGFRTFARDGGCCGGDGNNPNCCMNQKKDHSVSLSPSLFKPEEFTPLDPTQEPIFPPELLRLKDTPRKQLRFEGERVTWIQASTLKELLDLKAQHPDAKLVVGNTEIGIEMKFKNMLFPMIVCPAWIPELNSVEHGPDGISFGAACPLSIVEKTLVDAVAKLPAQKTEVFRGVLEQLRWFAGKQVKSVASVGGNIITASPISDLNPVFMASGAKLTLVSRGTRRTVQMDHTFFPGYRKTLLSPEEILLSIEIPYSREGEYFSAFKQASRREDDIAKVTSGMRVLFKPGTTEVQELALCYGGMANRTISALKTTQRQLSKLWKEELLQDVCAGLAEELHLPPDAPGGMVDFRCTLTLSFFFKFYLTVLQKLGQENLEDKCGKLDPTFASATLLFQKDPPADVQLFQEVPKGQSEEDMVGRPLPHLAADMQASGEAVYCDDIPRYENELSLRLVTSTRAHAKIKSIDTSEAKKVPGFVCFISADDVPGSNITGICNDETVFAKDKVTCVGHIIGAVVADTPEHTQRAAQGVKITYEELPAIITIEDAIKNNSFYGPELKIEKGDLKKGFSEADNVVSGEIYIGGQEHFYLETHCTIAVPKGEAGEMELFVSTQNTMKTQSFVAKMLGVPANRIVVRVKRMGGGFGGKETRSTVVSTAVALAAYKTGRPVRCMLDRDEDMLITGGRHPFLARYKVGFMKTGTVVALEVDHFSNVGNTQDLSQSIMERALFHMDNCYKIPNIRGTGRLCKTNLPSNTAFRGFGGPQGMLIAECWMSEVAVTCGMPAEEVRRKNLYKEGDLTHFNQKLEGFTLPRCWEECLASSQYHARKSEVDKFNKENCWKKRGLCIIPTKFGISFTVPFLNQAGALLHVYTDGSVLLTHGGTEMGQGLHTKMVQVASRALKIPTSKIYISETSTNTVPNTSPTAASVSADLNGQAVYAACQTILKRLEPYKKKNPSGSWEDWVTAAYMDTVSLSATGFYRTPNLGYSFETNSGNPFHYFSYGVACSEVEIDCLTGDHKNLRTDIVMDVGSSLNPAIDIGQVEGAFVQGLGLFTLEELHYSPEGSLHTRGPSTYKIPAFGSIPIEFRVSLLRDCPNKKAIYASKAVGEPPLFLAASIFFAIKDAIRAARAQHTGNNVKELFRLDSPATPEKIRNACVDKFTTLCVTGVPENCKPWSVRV
Description: Xanthine oxidase (XO) inhibitory potential was carried out according to the previously described method. The color produced because of hydrogen peroxide release during the process of oxidation of XO was measured at 570 nm using the plate reader EPOCH™ “MICROPLATE READER (BIOTEK)”. Forty-four microliters of xanthine oxidase buffer were mixed with 2 µL of xanthine substrate solution and 2 µL of XO. […] was applied as a positive control. This experiment was performed in triplicate.

wound healing = tested on: wound healing; set-up: method as in PMID 28989011; conditions: cited from earlier work
Tyrosinase = Tyrosinase (Agaricus bisporus, UniProt C7FF04); test: In vitro assay of tyrosinase activity (DOPAchrome); type: biochemical
Chain of Tyrosinase (C7FF04 1-392): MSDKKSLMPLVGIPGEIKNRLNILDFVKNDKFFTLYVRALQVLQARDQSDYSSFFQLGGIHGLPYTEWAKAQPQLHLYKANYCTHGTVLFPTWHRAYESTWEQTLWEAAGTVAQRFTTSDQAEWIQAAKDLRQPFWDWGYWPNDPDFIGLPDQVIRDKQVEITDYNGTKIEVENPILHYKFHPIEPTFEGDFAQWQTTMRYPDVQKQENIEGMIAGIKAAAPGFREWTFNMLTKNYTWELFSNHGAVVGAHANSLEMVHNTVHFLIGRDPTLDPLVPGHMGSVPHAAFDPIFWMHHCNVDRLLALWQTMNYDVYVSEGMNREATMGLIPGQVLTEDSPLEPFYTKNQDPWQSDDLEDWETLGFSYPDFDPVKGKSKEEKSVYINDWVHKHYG
Description: The tyrosinase inhibitory activity was measured from the following equation: inhibitory activity (%) = (1 − A/B) × 100, (9) where A and B are the absorbance of the mixture in presence or absence of test flavonoid, respectively. Every experiment was done in triplicate.

cutaneous wound healing = tested on: cutaneous wound healing; set-up: method as in PMID 20193736; conditions: cited from earlier work
[2] = tested on: tissue transglutaminase-2, TGF-1, and vascular endothelial growth factor; set-up: method as in PMID 20590611; conditions: sham OVX rats; cited from earlier work

Compound: O=c1c(O)c(-c2ccc(O)cc2)oc2cc(O)cc(O)c12 [Compound 1, kaempferol]
- wound healing effect [1]: healing effects

Compound: COc1ccc([C@@H]2CC(=O)c3c(O)cc(O[C@@H]4O[C@H](CO[C@@H]5O[C@@H](C)[C@H](O)[C@@H](O)[C@H]5O)[C@@H](O)[C@H](O)[C@H]4O)cc3O2)cc1O [Hesperidin]
- healing of injured skin (injured skin): sufficient healing benefits on injured skin

Compound: N[C@@H](Cn1ccc(=O)c(O)c1)C(=O)O [L-mimosine, reference compound]
- IC50 (Xanthine oxidase): 3.63 ± 0.18 µM

Compound: O=c1c(-c2ccc(O)cc2)c(O)oc2cc(O)cc(O)c12 [Compound 4, 2-hydroxygenistein]
- wound healing (wound healing): promote wound healing

Compound: O=c1c(O)c(-c2ccc(O[C@@H]3O[C@H](CO)[C@@H](O)[C@H](O)[C@H]3O)cc2)oc2cc(O)cc(O)c12 [Compound 2, kaempferol-4′-O-β-D-glucopyranoside]
- activity against xanthine oxidase (in words) (Xanthine oxidase): weak or inactivity
- IC50 (Xanthine oxidase): 73.7 ± 2.33 µM
- activity against tyrosinase (in words) (Tyrosinase): inactive or weakly active

Compound: COc1ccc([C@@H]2CC(=O)c3c(O)cc(O)cc3O2)cc1O [Compound 5, hesperetin]
- activity against xanthine oxidase (in words) (Xanthine oxidase): weak or inactivity
- IC50 (Xanthine oxidase): > 100 µM

Compound: O=c1c(-c2ccc(O)cc2)coc2cc(O)cc(O)c12 [Genistein]
- wound healing (cutaneous wound healing): accelerated wound healing
- effect on tissue transglutaminase-2, TGF-1 and vascular endothelial growth factor [2]: reduced tissue transglutaminase-2, TGF-1, and vascular endothelial growth factor

Compound: O=c1c(O)c(-c2ccc(O)cc2)oc2cc(O[C@@H]3O[C@H](CO)[C@@H](O)[C@H](O)[C@H]3O)cc(O)c12 [Compound 3, kaempferol-7-O-β-D-glucopyranoside]
- IC50 (Xanthine oxidase): 6.39 ± 0.36 µM
- activity against tyrosinase (in words) (Tyrosinase): inactive or weakly active
